Like-named read-outs stand apart in the source and are kept apart here.
Key:
[1] = molecular target: T1, human alpha-thrombin (Homo sapiens, UniProt P00734); test: biochemical
Procedure: The buffer used for all assays was HBSA (10 mM HEPES, pH 7.5, 150 mM sodium chloride, 0.1% bovine serum albumin). […] Following a 30-minute incubation at ambient temperature, 50 microliters of the substrate at the concentrations specified below, was added to the wells yielding a final total volume of 200 microliters. The initial velocity of chromogenic substrate hydrolysis was measured by the change in absorbance at 405nm using a Thermo Max® Kinetic Microplate Reader over a 5 minute period in which less than 5% of the added substrate was utilized.
Thrombin catalytic activity was determined using the chromogenic substrate Pefachrome t-PA (CH3 SO2 -D-hexahydrotyrosine-glycyl-L-arginine-p-nitroanilide, obtained from Pentapharm Ltd.). The substrate was made up in deionized water followed by dilution in HBSA prior to the assay in which the final concentration was 300 micromolar (about 5-times Km). Purified human alpha-thrombin was obtained from Enzyme Research Laboratories, Inc. The enzyme was diluted into HBSA prior to the assay in which the final concentration was 0.25 nM.

[2] = molecular target: T1, human alpha-thrombin; conditions: Table 4, human alpha-thrombin
Procedure: Enzyme activity was determined using the chromogenic substrate Pefachrome t-PA (CH3 SO2 -D-hexahydrotyrosine-glycyl-L-Arginine-p-nitroanilide), obtained from Pentapharm Ltd. The substrate was reconstituted in deionized water prior to use. Purified human alpha-thrombin (3000U/mg specific activity) was obtained from Enzyme Research Laboratories, Inc. The buffer used for all assays was HBSA (10 mM HEPES, pH 7.5, 150 mM sodium chloride, 0.1%, bovine serum albumin).
Velocities of chromogenic substrate hydrolysis which occurred over 40 min was measured by the change in absorbance at 405 nm using a Thermo Max® Kinetic Microplate Reader. […] The extent of substrate hydrolysis was less than 5% over the course of this assay.

[3] = tested on: human plasma clotting (APTT); test: Ex vivo anticoagulant effect, APTT in citrated human plasma
Text: (§1) The control clotting times (0 inhibitor) for rat and human plasma were 19 seconds and 29 seconds, respectively. The concentration of BzlSO2 -norVal(cyclo)-Gly-Ala(3-guanPip)al which caused a doubling of the control clotting time in rat and human plasma was 12.7 micromolar and 9.1 micromolar, respectively. The data is the mean of two independent determinations.
(§2) Fresh frozen citrated pooled normal human plasma was obtained from George King Biomedical, Overland Park, Kans. Pooled normal rat plasma was prepared from citrated whole blood collected from anesthetized rats using standard procedures. The plasma was flash frozen and stored at -80° C. until use. Measurements APTT was made using the Coag-A-Mate RA4 automated coagulometer (General Diagnostics, Organon Technica, Oklahoma City, Okla.) using the Automated APTT reagent (Organon Technica, Durham, N.C.) as the initiator of clotting according to the manufacturers instructions. The assay was conducted by making a series of dilution's of Isomer B in rapidly thawed plasma followed by adding 200 microliters to the wells of the assay carousel.

[4] = molecular target: plasmin (Homo sapiens, UniProt P00747); test: Plasmin assay (specificity determination); type: biochemical; conditions: maximal concentration 25,000 nM, mean of at least two independent experiments
Procedure: Plasmin catalytic activity was determined using the chromogenic substrate, S-2251 [D-valyl-L-leucyl-L-lysine-p-nitroanilide], which was obtained from Kabi Diagnostica.

[5] = tested on: FeCl3-induced occlusive thrombus in rat carotid artery; test: Rat model of FeCl3-induced platelet-dependent arterial thrombosis; type: in vivo; conditions: for Incidence of Occlusion: single intravenous bolus 5 minutes before FeCl3, n = 6, 60 minutes, saline 6/6; for ED50: Rattus norvegicus, read-out: ED50 for thrombus prevention in the FeCl3 model of arterial thrombosis
Text: Kurz, K. D., Main, B. W., and Sandusky, G. E., Thromb. […] In this model a platelet-rich, occlusive thrombus is formed in a segment of the rat carotid artery treated locally with a fresh solution of FeCl3 absorbed to a piece of filter paper. The FeCl3 is thought to diffuse into the treated segment of artery and causes de-endothelialization of the affected vessel surface. […] The effect of a test compound on the incidence of occlusive thrombus formation following the application of the FeCl3 is monitored by ultrasonic flowtometry and is used as the primary end point. The use of flowtometry to measure carotid artery blood flow, is a modification of the original procedure in which thermal detection of clot formation was employed. Kurz, K. D., Main, B. W., and Sandusky, G. E., Thromb.
The animals were prepared, anesthetized with Nembutal followed by the insertion of catheters for blood pressure monitoring, drug and anesthesia delivery. The left carotid artery was isolated by making a midline cervical incision followed by blunt dissection and spreading techniques to separate a 2 cm segment of the vessel from the carotid sheath. A silk suture is inserted under the proximal and distal ends of the isolated vessel to provide clearance for the placement of a ultrasonic flow probe (Transonic) around the proximal end of the vessel. The probe is then secured with a stationary arm.
Following surgery the animals were randomized in either a control (saline) or treatment group with test compound (Isomer B) with at least 6 animals per group per dose. The test compound was administered as a single intravenous bolus at the doses outlined in Table 3 after placement of the flow probe and 5 minutes prior to the thrombogenic stimulus. […] Blood pressure, blood flow, heart rate, and respiration were monitored for 60 minutes.
The incidence of occlusion (defined as the attainment of zero blood flow) was recorded as the primary end point and as a measure of the antithrombotic efficacy of Isomer B.

[6] = tested on: rat plasma clotting (APTT); test: Ex vivo anticoagulant effect, APTT in citrated rat plasma
Text: as §1, §2

[7] = literature; cited from earlier work
[8] = literature; cited from earlier work; remark: listed apart in the source
[9] = tested on: thrombin; conditions: literature; cited from earlier work

plasmin, sequence (P00747 581-810 limits assumed): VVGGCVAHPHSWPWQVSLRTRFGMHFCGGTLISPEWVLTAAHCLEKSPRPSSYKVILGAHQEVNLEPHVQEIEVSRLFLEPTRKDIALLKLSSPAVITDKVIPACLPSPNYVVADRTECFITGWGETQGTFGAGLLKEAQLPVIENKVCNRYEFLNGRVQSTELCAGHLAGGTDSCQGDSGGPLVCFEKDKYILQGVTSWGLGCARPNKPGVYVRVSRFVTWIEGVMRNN
plasmin, sequence (P00747 97-580 limits assumed): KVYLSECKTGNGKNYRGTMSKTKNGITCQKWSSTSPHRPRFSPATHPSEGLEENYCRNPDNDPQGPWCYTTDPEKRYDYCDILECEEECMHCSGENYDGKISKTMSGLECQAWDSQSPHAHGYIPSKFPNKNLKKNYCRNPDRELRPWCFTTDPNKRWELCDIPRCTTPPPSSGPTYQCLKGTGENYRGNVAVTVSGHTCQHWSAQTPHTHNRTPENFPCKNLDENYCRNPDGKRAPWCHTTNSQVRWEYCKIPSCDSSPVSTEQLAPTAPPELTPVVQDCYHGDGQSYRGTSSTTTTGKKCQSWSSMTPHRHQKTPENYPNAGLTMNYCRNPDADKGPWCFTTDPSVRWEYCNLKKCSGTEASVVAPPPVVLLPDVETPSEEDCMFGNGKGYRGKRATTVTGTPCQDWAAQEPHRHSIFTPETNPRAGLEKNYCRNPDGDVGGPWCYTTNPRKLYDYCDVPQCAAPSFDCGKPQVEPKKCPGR

SMILES: N=C(N)N1CCCC(C[C@@H](C=O)NC(=O)CN2CCC[C@H](NS(=O)(=O)Cc3ccccc3)C2=O)C1 (single isomer, unassigned) [Isomer B]
- IC50 [1]: 0.9 nM
- Ki [2]: 0.318 nM
- concentration which caused a doubling of the control clotting time (APTT) ([3]; citrated human plasma, control clotting time 29 seconds, mean of two independent determinations): 9.1 µM
- prolongation of the APTT ([3]; human plasma): prolonged the APTT in a dose dependent manner
- IC50 [4]: > 25000 nM
- Incidence of Occlusion ([5]; 0.3 mg/kg): 6/6
- Incidence of Occlusion ([5]; 1.0 mg/kg): 4/6
- Incidence of Occlusion ([5]; 3.0 mg/kg, p ≤ 0.05 from saline control by Fishers test): 0/6
- ED50 [5]: 1.4 mg/kg
- prolongation of the APTT [6]: prolonged the APTT in a dose dependent manner

SMILES: N=C(N)c1ccc(CC(=O)C(=O)O)cc1 [APPA, 4-amidinophenylpyruvic acid]
- toxicity [7]: low toxicity
- pharmacokinetics [8]: favourable pharmacokinetics
- selectivity of thrombin inhibition [9]: non-selective, inhibiting trypsin, plasmin and kallikrein

SMILES: CC1CNc2c(cccc2S(=O)(=O)N[C@@H](CCCNC(=N)N)C(=O)N2CC[C@@H](C)C[C@@H]2C(=O)O)C1 (stereo partly drawn) [Argatroban, 2R,4R-4-methyl-1-[N-2-(3-methyl-1,2,3,4-tetrahydro-8-quinolinesulfonyl)-L-argininal]-2-piperdinecarboxylic acid, reference compound]
- ED50 ([5]; dose that prevents complete thrombotic occlusion in 50% of animals tested): 3.8 mg/kg

SMILES: CS(=O)(=O)O.CS(=O)(=O)O.N=C(N)Nc1ccc(C(=O)Oc2ccc3cc(C(=N)N)ccc3c2)cc1 [FUT 175, 6-amidino-2-naphthyl-4-guanidinobenzoate dimethanesulfonate]
- selectivity of thrombin inhibition [9]: non-selective
